From patent US7202069B2, “(R)-2-octanol dehydrogenases, methods for producing the enzymes, DNA encoding the enzymes, and methods for producing alcohols using the enzymes” (Daicel Chemical Industries, Ltd., priority 2000, dated 2007)
Where two headings read alike, the source gives them in different places.

Tests used:
[1] = system: (R)-2-octanol dehydrogenase; assay: Residual (R)-2-octanol dehydrogenase activity after treatment with reagents; assay type: biochemical, Pichia finlandica
Method: The (R)-2-octanol dehydrogenase was treated with various reagents at 30° C. for 30 minutes and the (R)-2-octanol dehydrogenase activity was measured.

[2] = system: (R)-2-octanol dehydrogenase; assay: Oxidation activity of (R)-2-octanol dehydrogenase on various alcohols, NAD+ as coenzyme; assay type: biochemical, Pichia finlandica; settings: oxidation activity of (R)-2-octanol taken as 100
Method: (§1) On the other hand, oxidation activity on (R)-2-octanol can be measured as follows. The activity can be validated by incubating at 30° C. the reaction mixture containing Tris-HCl buffer (pH 8.5, 50 mM), 2.5 mM NAD^+, 5 mM (R)-2-octanol, and the enzyme and by measuring increase of absorbance at 340 nm accompanying generation of NADH. 1 U was defined as the amount of the enzyme catalyzing generation of 1 μmol of NADH for 1 minute.
The (R)-2-octanol dehydrogenase was reacted with various alcohols and its oxidation activity was measured.

[3] = system: (R)-2-octanol dehydrogenase; assay: Reduction activity of the enzyme of Example 3 on various ketones, NADH as coenzyme; assay type: biochemical, Pichia finlandica
Method: (§2) In the present invention, reduction activity on 4-chloroacetoacetic acid ester can be measured as follows. The activity can be validated by incubating at 30° C. the reaction mixture containing potassium phosphate buffer (pH 6.5, 100 mM), 0.2 mM NADH, 20 mM ethyl 4-chloroacetoacetate, and the enzyme and by measuring decrease of absorbance at 340 nm accompanying decrease of NADH. 1 U was defined as the amount of the enzyme catalyzing decrease of 1 μmol of NADH for 1 minute. Quantification of proteins can be done by dye binding method using the protein assay kit (BIORAD).
The enzyme of Example 3 was reacted with various ketones and its reduction activity was measured.

[4] = system: (R)-2-octanol dehydrogenase; assay: Oxidation activity of (R)-2-octanol dehydrogenase on various alcohols, NAD+ as coenzyme; assay type: biochemical, Candida utilis; settings: oxidation activity of (R)-2-octanol taken as 100
Method: as §1
The (R)-2-octanol dehydrogenase was reacted with various alcohols and its oxidation activity was measured. […] As a result, the relative activity was 6.7% for (S)-2-octanol, 8.3% for 2-propanol, and 86% for (R)-1-phenylethanol.

[5] = system: (R)-2-octanol dehydrogenase; assay: Reduction activity of the enzyme of Example 35 on various ketones, NADH as coenzyme; assay type: biochemical, Candida utilis
Method: as §2
The enzyme of Example 35 was also reacted with various ketones and its reduction activity was measured. […] As a result, the relative activity was 26.6% for 2-octanone and 25.3% for acetophenone.

[6] = system: (R)-2-octanol dehydrogenase; assay: Activation of (R)-2-octanol dehydrogenase by reagents; assay type: biochemical, Pichia finlandica; settings: for Relative activity: reagent 1 mM, activity without reagents = 100
Method: The activation effect of (R)-2-octanol dehydrogenase in various reagents was measured.

[7] = (R)-2-octanol oxidation activity of the purified enzyme (specific activity, optimum pH, optimum temperature); assay type: biochemical, Pichia finlandica; settings: after Superdex 200 gel filtration
Method: as §1
The highest specific activity of the purified enzyme was about 91 U/mg-protein which is the activity of oxidizing (R)-2-octanol.
We examined (R)-2-octanol dehydrogenase activity of the enzyme obtained from Example 3 changing pH by using phosphate buffer (KPB), Tris-HCl buffer, Glycine buffer. […] As a result, the optimum pH of the enzyme was from 8.0 to 11.0.
We examined (R)-2-octanol oxidation activity of the enzyme obtained from Example 3 changing only temperature in the standard reaction conditions. […] As a result, the optimum temperature of the enzyme was from 45 to 55.

[8] = reagent 1 mM, 30° C. for 30 minutes, enzyme treated without reagents = 100
[9] = reduction activity of 4-chloroacetoacetic acid ethyl ester taken as 100, NADH as coenzyme
[10] = 4-chloroacetoacetic acid ethyl ester taken as 100, NADH
[11] = treated at 30° C. for 30 minutes
[12] = reagent 0.01 mM, 30° C. for 30 minutes, enzyme treated without reagents = 100

Molecule: O[C@H](CS)[C@H](O)CS (racemic) [Dithiothreitol]
- Residual activity [1, 8]: 123%

Molecule: CCCCCCCCO [1-Octanol]
- relative activity, oxidation reaction ([2]; NAD+ as coenzyme): 1.72

Molecule: CC(O)COc1ccccc1 (stereo not drawn) [1-Phenoxy-2-propanol]
- relative activity, oxidation reaction ([2]; NAD+ as coenzyme): 15.5

Molecule: CC(=O)COc1ccccc1 [1-Phenoxy-2-propanone]
- relative activity, reduction reaction [3, 9]: 54.2

Molecule: CCC(C)=O [2-Butanone]
- relative activity, reduction reaction [3, 9]: 7.99

Molecule: CCCCC(C)O (stereo not drawn) [2-Hexanol]
- relative activity, oxidation reaction ([2]; NAD+ as coenzyme): 54.1

Molecule: CCCCCCC(C)O (stereo not drawn) [2-Octanol]
- relative activity, oxidation reaction ([4]; NAD+ as coenzyme): 8.3
- relative activity, oxidation reaction ([2]; NAD+ as coenzyme): 77.8

Molecule: CCCCCCC(C)=O [2-Octanone]
- relative activity, reduction reaction [3, 10]: 31.2%
- relative activity, reduction reaction [3, 9]: 31.2
- relative activity, reduction reaction [5, 10]: 26.6%
- relative activity, reduction reaction [5, 9]: 26.6

Molecule: CC(C)O [2-Propanol]
- relative activity, oxidation reaction ([4]; NAD+): 8.3%
- relative activity, oxidation reaction ([2]; NAD+): 6.8%
- relative activity, oxidation reaction ([2]; NAD+ as coenzyme): 6.79

Molecule: CC(=O)CCO [4-Hydroxy-2-butanone]
- relative activity, reduction reaction [3, 9]: 0.691

Molecule: C[C@@H](O)CCO [(R)-1,3-butanediol]
- relative activity, oxidation reaction ([2]; NAD+ as coenzyme): 1.29

Molecule: OCC[C@@H](O)c1ccccc1 [(R)-1-phenyl-1,3-propanediol]
- relative activity, oxidation reaction ([2]; NAD+ as coenzyme): 0.344

Molecule: C[C@@H](O)c1ccccc1 [(R)-1-phenylethanol]
- relative activity, oxidation reaction ([4]; NAD+): 86%
- relative activity, oxidation reaction ([4]; NAD+ as coenzyme): 86.7
- relative activity, oxidation reaction ([2]; NAD+): 255%
- relative activity, oxidation reaction ([2]; NAD+ as coenzyme): 255

Molecule: CCCCCC[C@@H](C)O [(R)-2-octanol]
- relative activity, oxidation reaction ([4]; NAD+ as coenzyme): 100
- relative activity, oxidation reaction ([2]; NAD+ as coenzyme): 100

Molecule: C[C@H](O)CCO [(S)-1,3-butanediol]
- relative activity, oxidation reaction ([2]; NAD+ as coenzyme): 0.516

Molecule: OCC[C@H](O)c1ccccc1 [(S)-1-phenyl-1,3-propanediol]
- relative activity, oxidation reaction ([2]; NAD+ as coenzyme): 0.258

Molecule: C[C@H](O)c1ccccc1 [(S)-1-phenylethanol]
- relative activity, oxidation reaction ([4]; NAD+ as coenzyme): 6.7
- relative activity, oxidation reaction ([2]; NAD+ as coenzyme): 1.81

Molecule: CCCCCC[C@H](C)O [(S)-2-octanol]
- relative activity, oxidation reaction ([4]; NAD+): 6.7%
- relative activity, oxidation reaction ([4]; NAD+ as coenzyme): 6.7
- relative activity, oxidation reaction ([2]; NAD+): 4.7%
- relative activity, oxidation reaction ([2]; NAD+ as coenzyme): 4.73

Molecule: CC(C)=O [Acetone]
- relative activity, reduction reaction [3, 9]: 1.82

Molecule: CC(=O)c1ccccc1 [Acetophenone]
- relative activity, reduction reaction [3, 10]: 45%
- relative activity, reduction reaction [3, 9]: 45.3
- relative activity, reduction reaction [5, 10]: 25.3%
- relative activity, reduction reaction [5, 9]: 25.3

Molecule: O.O.[Ba+2].[Cl-].[Cl-] [BaCl2Ñ2H2O]
- Residual activity [1, 8]: 102%

Molecule: [Ca+2].[Cl-].[Cl-] [CaCl2Ñ2H2O, calcium chloride]
- Residual activity [1]: 174%
- effect of reagent on the enzyme (inhibition / stabilization), in words [1]: stabilized

Molecule: O.O.O.O.O.O.[Cl-].[Cl-].[Co+2] [CoCl2Ñ6H2O]
- Residual activity [1, 8]: 99%

Molecule: O=S(=O)([O-])[O-].[Cu+2] [CuSO4]
- Residual activity [1, 8]: 100%

Molecule: OC1CCCCC1 [Cyclohexanol]
- relative activity, oxidation reaction ([2]; NAD+ as coenzyme): 0.172

Molecule: O=C([O-])CN(CCN(CC(=O)[O-])CC(=O)O)CC(=O)O.[Na+].[Na+] [EDTAÑ2Na, ethylenediaminetetraacetic acid 2Na]
- Residual activity [1, 8]: 81%
- effect of reagent on the enzyme (inhibition / stabilization), in words [1, 11]: slightly inhibited

Molecule: CCO [Ethanol]
- relative activity, oxidation reaction ([2]; NAD+ as coenzyme): 0.688

Molecule: CCOC(=O)CC(=O)CCl [Ethyl 4-chloroacetoacetate]
- relative activity, reduction reaction [3, 9]: 100
- relative activity, reduction reaction [5, 9]: 100

Molecule: CCOC(=O)C[C@@H](C)O [Ethyl (R)-3-hydroxybutyrate]
- relative activity, oxidation reaction ([2]; NAD+ as coenzyme): 41.1

Molecule: CCOC(=O)C[C@@H](O)CCl [Ethyl (R)-4-chloro-3-hydroxybutyrate]
- relative activity, oxidation reaction ([2]; NAD+ as coenzyme): 0.172

Molecule: CCOC(=O)C[C@H](C)O [Ethyl (S)-3-hydroxybutyrate]
- relative activity, oxidation reaction ([2]; NAD+ as coenzyme): 1.03

Molecule: CCOC(=O)C[C@H](O)CCl [Ethyl (S)-4-chloro-3-hydroxybutyrate]
- relative activity, oxidation reaction ([2]; NAD+ as coenzyme): 2.24

Molecule: CCOC(=O)CC(C)=O [Ethyl acetoacetate]
- relative activity, reduction reaction [3, 9]: 106

Molecule: [Cl][Fe][Cl] [FeCl2]
- Residual activity [1, 8]: 93%

Molecule: [Cl][Hg][Cl] [HgCl2, mercury chloride]
- Residual activity [1, 12]: 62%
- effect of reagent on the enzyme (inhibition / stabilization), in words [1, 11]: slightly inhibited

Molecule: [Cl-].[K+] [KCl]
- Residual activity [1, 8]: 106%

Molecule: [Cl-].[Cl-].[Mg+2] [MgCl2Ñ6H2O, magnesium chloride]
- Residual activity [1]: 185%
- effect of reagent on the enzyme (inhibition / stabilization), in words [1]: stabilized
- Relative activity [6]: 122%

Molecule: O=S(=O)([O-])[O-].[Mg+2] [MgSO4]
- Relative activity [6]: 125%

Molecule: CCN1C(=O)C=CC1=O [N-ethylmaleimide]
- Residual activity [1, 8]: 147%
- effect of reagent on the enzyme (inhibition / stabilization), in words [1, 11]: stabilized

Molecule: Cl.NO [NH2OHÑHCl]
- Residual activity [1, 12]: 99%

Molecule: O.O.O.O.O.O.[Cl][Ni][Cl] [NiCl2Ñ6H2O]
- Residual activity [1, 8]: 103%

Molecule: O=S(=O)(F)Cc1ccccc1 [Phenylmethylsulfonyl fluoride]
- Residual activity [1, 8]: 111%

Molecule: CCC=O [Propionaldehyde]
- relative activity, reduction reaction [3, 9]: 18.4

Molecule: O=c1c(O)c(-c2ccc(O)c(O)c2)oc2cc(O)cc(O)c12 [Quercetin]
- Residual activity ([1]; reagent 0.1 mM, 30° C. for 30 minutes, enzyme treated without reagents = 100): 99%

Molecule: [Cl-].[Cl-].[Zn+2] [ZnCl2]
- Residual activity [1, 8]: 96%
- Relative activity [6]: 105%

Molecule: O.O.O.O.O.O.O.O=S(=O)([O-])[O-].[Zn+2] [ZnSO4Ñ7H2O]
- Relative activity [6]: 110%

Molecule: [Mg] [magnesium]
- activation of the enzyme, in words [6]: activated

Molecule: [Mn+2] [manganese]
- activation of the enzyme, in words [6]: activated

Molecule: c1cnc2c(c1)ccc1cccnc12 [o-Phenanthroline]
- Residual activity [1, 8]: 162%
- effect of reagent on the enzyme (inhibition / stabilization), in words [1, 11]: stabilized

Molecule: O=S(=O)(O)O [sulphate ion]
- activation of the enzyme, in words [6]: activated

Molecule: [Zn+2] [zinc]
- activation of the enzyme, in words [6]: activated

Molecule: (R)-2-butanol
- relative activity, oxidation reaction ([2]; NAD+ as coenzyme): 49.3

Molecule: (S)-2-butanol
- relative activity, oxidation reaction ([2]; NAD+ as coenzyme): 7.31

Molecule: MnSO4Ñ4-5H2O
- Relative activity [6]: 121%

Molecule: manganese chloride [MnCl2Ñ4H2O]
- Residual activity [1, 8]: 185%
- effect of reagent on the enzyme (inhibition / stabilization), in words [1, 11]: stabilized
- Relative activity [6]: 114%

B1: (R)-2-octanol dehydrogenase from Pichia finlandica: NAD+-dependent (R)-2-octanol dehydrogenase purified from Pichia finlandica DSM 70280; amino acid sequence SEQ ID NO:2 (protein, listed as Pichia finlandica)
chain: MSYNFHNKVAVVTGALSGIGLSVAKKFLQLGAKVTISDVSGEKKYHETVVALKAQNLNTDNLHYVQADSSKEEDNKKLISETLATFGGLDIVCANAGIGKFAPTHETPFDVWKKVIAVNLNGVFLLDKLAINYWLEKSKPGVIVNMGSVHSFVAAPGLAHYGAAKGGVKLLTQTLALEYASHGIRVNSVNPGYISTPLIDEVPKERLDKLVSLHPIGRLGRPEEVADAVAFLCSQEATFINGVSLPVDGGYTAQ
- highest specific activity of the purified enzyme, oxidizing (R)-2-octanol [7]: about 91 U/mg-protein
